Tests used:
[1] = highly dilute conditions (~5 mM), pH 7.5, in vitro (ref. 19); cited from earlier work
[2] = target: T1, VLA-4 expressing B16-F10 cells (Mus musculus, UniProt P09055+Q00651); test: In vitro saturation binding assay on B16-F10 cells
T1 construct: endogenous in cells; host or cells: B16-F10 murine melanoma cells
Description: Saturation binding assay. In vitro binding saturation assays were performed on B16-F10 cells following published procedures (n=3).(28) Cells were grown to near-confluence on 24 well poly-D-lysine plates. Growth media was removed, and reaction media (RPMI, 1% BSA, 100 U/mL penicillin/streptomycin) was added and allowed to incubate for at least 1 h at 37° C. Increasing concentrations (5 pM to 20 nM) of [^18F]6 were added to the cells and incubated for 1 h at 25° C. with mild agitation. Non-specific binding was determined by repeating the described incubations with [^18F]6 while simultaneously adding 1 (10 μM). After incubation, cells were washed twice with ice-cold PBS, harvested following incubation with trypsin, and measured for radioactivity using a WIZARD 2480 gamma counter (PerkinElmer). Values from the non-specific binding assays were subtracted from the respective values of the specific binding assays. Dissociation constants (Kd'S) were determined using GraphPad PRISM 7 with a one-site specific binding model.

[3] = tested on: B16-F10 tumor-bearing mice; type: in vivo, mice (male C57BL/6J); design: Reduction of accumulation in the spleen by co-injection of 1 / Reduction of accumulation in the intestines by co-injection of 1 / Reduction of accumulation in the lungs by co-injection of 1 / Reduction of accumulation in bone & marrow by co-injection of 1 / Reduction of accumulation in the tumor by co-injection of 1: concentration or dose not given beside the values
Description: All animal experiments were conducted according to the guidelines established by Canadian Council on Animal Care and approved by Animal Ethics Committee of the University of British Columbia. Mice were housed under pathogen-free conditions and kept on twelve-hour light and dark cycles in the Animal Resource Centre of BC Cancer Research Centre, Vancouver, Canada. PET imaging and biodistribution studies were performed using male C57BL/6J mice. For tumor implantation, mice were anesthetized by inhalation with 2% isoflurane in 2.0 L/min of oxygen, and 1×10^6 B16F10 cells were implanted subcutaneously on the right back at the level of the forelimbs. Mice were imaged or used in biodistribution studies once the tumor grew to reach 8-10 mm in diameter in 8-10 days. Mice for biodistribution study only were anesthetized by 2% isoflurane inhalation, and injected with 1-2 MBq of F-18 labeled […]3-DOTA. For blocking studies, 100 μg of non-radioactive […]3-DOTA was co-injected with the radioactive compound. After injection, the mice were allowed to recover and roam freely in their cages, and euthanized by CO2 inhalation 1 h later. Blood was promptly withdrawn, and the organs of interest were harvested, rinsed with 1×PBS (pH 7.4), and blotted dry. Each organ was weighed and the radioactivity of the collected tissue was measured using a WIZARD 2480 (PerkinElmer), normalized to the injected dose using a standard curve and expressed as the percentage of the injected dose per gram of tissue (% ID/g). Biodistribution of DOTA-[^18[…]]6) in B16-F10 tumor-bearing mice. Mice were anesthetized using 2% isoflurane and injected with 2-3 MBq of [^18F]6 via the tail vein. For competitive VLA-4 blocking studies, 200 μg of 1 was co-injected with 2-3 MBq of [^18F]6. At 1 h p.i., mice were euthanized by CO2 (g) inhalation, blood was collected, and the organs were excised. After rinsing and drying the samples, organs were weighed, their radioactivity was recorded using a Wallac WIZARD2 gamma counter (PerkinElmer), and values were expressed as % ID/g for each organ. Two-tailed ANOVA Sidak's multiple comparison tests (GraphPad PRISM) were used to evaluate statistical significance between the biodistribution of [^18F]6 alone compared with competitive blocking of VLA-4 by co-injections of 1.

[4] = tested on: B16-F10 tumor-bearing mice; design: species or system mice (male C57BL/6J); details: mouse, in vivo
Description: PET/CT imaging studies were carried out on a microPET/CT scanner (Inveon, Siemens). Briefly, for static PET scans, each tumor bearing mouse was injected with 4-6 MBq of F-18 labeled […]3-DOTA via the caudal lateral tail vein under isoflurane sedation. For blocking study, mice were co-injected with 100 μg of non-radioactive […]3-DOTA. After injection, the mice were allowed to recover and roam freely in their cages. After 50 min, the mice were sedated again and positioned in the scanner. A baseline CT scan was obtained for localization and attenuation correction. This was followed by a 10 min static PET scan. The mice were kept warm by a heating pad during acquisition. The mice were euthanized using CO2 inhalation after static PET imaging followed by biodistribution. The PET images were reconstructed using the ordered subset expectation maximization and maximum a posteriori algorithm (OSEM3D/MAP), using 2 OSEM3D iterations followed by 18 MAP iterations, with a requested resolution of 1.5 mm. […] For static PET scans (recorded for 10 min), mice were first injected with 4-6 MBq of ([^18F]6) via the tail vein while anesthetized with 2% isoflurane and were subjected to baseline CT scans (recorded for 10 min) prior to PET imaging. […] Dynamic PET scans involved the described anesthesia, injection of 4-6 MBq of [^18F]6, baseline CT scans, and PET scans recorded from 5 sec. to 52.5 min p.i. […]

[5] = tested on: mice bearing PSMA-expressing LNCaP prostate cancer xenografts; design: species or system mice (NODSCID 1L2RγKO male); details: mouse, in vivo
Description: Imaging and biodistribution experiments were performed using NODSCID 1L2RγKO male mice. The mice were maintained and the experiments were conducted in according to the guidelines established by Canadian Council on Animal Care and approved by Animal Ethics Committee of the University of British Columbia. Mice were anesthetized by inhalation with 2% isoflurane in oxygen, and implanted subcutaneously with 1×10^7 LNCaP cells behind left shoulder. Mice were imaged or used in biodistribution studies when the tumor grew up to reach 5-8 mm in diameter during 5-6 weeks. For biodistribution studies, the mice were injected with the radiotracer as described above. For blocking, the mice were co-injected with non-radioactive DCFPyL (0.5 mg). After 1 hour, the mice were anesthetized with 2% isoflurane inhalation, and euthanized by CO2 inhalation. Blood was withdrawn immediately from the heart, and the organs/tissues of interest were collected. The collected organs/tissues were weighed and counted using an automatic gamma counter. The uptake in each organ/tissue was normalized to the injected dose using a standard curve, and expressed as % ID/g.

T1 sequence (Q00651 41-1039): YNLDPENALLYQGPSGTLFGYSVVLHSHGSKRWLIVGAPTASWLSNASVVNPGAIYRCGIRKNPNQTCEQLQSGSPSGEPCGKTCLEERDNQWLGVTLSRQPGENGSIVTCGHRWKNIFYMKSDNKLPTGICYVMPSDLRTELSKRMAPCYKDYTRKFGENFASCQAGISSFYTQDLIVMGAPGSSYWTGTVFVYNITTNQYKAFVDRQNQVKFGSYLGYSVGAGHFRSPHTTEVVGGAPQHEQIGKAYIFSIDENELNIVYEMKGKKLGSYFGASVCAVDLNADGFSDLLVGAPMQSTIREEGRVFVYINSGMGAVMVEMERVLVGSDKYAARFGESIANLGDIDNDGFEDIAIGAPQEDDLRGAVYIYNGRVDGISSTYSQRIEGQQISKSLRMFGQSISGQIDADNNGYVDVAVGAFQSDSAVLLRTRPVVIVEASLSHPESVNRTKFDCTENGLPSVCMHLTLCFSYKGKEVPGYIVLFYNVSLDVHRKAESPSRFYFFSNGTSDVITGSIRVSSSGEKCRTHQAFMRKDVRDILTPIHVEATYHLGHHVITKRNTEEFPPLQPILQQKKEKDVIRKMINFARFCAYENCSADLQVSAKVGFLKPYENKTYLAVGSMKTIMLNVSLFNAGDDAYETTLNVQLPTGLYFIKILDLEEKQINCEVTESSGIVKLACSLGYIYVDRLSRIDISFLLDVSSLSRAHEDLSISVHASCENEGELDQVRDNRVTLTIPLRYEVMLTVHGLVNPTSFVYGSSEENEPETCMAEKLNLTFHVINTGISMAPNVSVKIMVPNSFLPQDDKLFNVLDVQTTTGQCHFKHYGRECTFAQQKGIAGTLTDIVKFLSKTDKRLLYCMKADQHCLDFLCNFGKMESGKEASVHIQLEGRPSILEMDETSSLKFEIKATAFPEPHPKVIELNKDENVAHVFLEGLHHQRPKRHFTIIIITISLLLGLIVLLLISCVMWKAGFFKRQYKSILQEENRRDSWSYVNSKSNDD
T1 sequence (P09055 21-798): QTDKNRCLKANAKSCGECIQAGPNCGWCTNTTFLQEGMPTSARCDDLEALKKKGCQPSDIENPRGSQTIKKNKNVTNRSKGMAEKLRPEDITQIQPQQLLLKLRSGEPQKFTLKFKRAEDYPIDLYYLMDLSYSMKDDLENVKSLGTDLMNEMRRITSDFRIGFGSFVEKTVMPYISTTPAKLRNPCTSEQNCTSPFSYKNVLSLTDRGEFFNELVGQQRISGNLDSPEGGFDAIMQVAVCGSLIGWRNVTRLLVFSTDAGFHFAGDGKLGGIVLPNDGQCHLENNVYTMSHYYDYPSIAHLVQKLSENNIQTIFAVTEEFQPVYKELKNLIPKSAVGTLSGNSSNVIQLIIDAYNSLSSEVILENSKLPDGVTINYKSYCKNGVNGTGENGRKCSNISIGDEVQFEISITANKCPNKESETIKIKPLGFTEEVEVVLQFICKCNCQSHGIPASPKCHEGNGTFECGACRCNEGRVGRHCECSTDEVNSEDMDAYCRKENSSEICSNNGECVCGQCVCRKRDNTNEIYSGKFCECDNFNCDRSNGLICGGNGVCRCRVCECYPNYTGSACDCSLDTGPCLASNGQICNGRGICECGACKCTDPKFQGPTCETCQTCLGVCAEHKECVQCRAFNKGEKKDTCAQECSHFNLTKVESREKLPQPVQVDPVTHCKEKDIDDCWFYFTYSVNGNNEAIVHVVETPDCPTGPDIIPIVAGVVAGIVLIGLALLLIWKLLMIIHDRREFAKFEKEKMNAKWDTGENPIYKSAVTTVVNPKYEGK

For `C#CC[N+](C)(C)C[B-](F)(F)F` [compound 7, N-propargyl-N,N-dimethyl-ammoniomethyl-trifluoroborate], the “Loss of free fluoride (hydrolytic stability)” value [1] is given as “very slow, first order rate”.

With DOTA-AMBF3-PEG2-LLP2A [compound 6] the “Kd relative to Kd values of other [^18F]RBF3-PEG2-LLP2A conjugates (fold higher)” value ([2]; comparison with earlier conjugates) was “at least 5 fold” and the Kd ([2]; saturation binding of [^18F]6, B16-F10 cells, 1 h at 25° C., n=3) was 6.9 ± 0.59 nM.

In the case of DOTA-[^18F]AMBF3-PEG2-LLP2A [[^18F]6], the “Lowering of tumor-to-blood contrast by VLA-4 blocking” value ([3]; 1 h p.i., p<0.0001) is reported as 85%, the “Lowering of tumor-to-muscle contrast by VLA-4 blocking” value ([3]; 1 h p.i., p<0.0001) is reported as 92% and the “Reduction of accumulation in bone & marrow by co-injection of 1” value ([3]; 1 h p.i., p<0.0001) is reported as 78%. The “Reduction of accumulation in the lungs by co-injection of 1” value ([3]; 1 h p.i., p<0.0001) was 85%, the “Reduction of accumulation in the spleen by co-injection of 1” value ([3]; 1 h p.i., p<0.0001) was 88% and the “Reduction of accumulation in the tumor by co-injection of 1” value ([3]; 1 h p.i., p<0.0001) was 75%. The “Reduction of accumulation in the intestines by co-injection of 1” value ([3]; 1 h p.i., p<0.05) was 43%, the “Reduction of accumulation in the intestines compared to previously investigated [^18F]RBF3-PEG2-LLP2A's” value ([3]; mouse, in vivo) was about 10 fold and the “Tumor-to-tissue ratio Tumor: Bone & Marrow” value ([3]; mouse, in vivo) was 1.98 ± 0.78. The “Tumor-to-tissue ratio Tumor: Kidney” value ([3]; mouse, in vivo) was 2.22 ± 0.60, the “Time of initial perfusion and first pass through the liver (dynamic PET)” value [4] was at most 4 min p.i and the “Time to uptake in the tumor (dynamic PET)” value [4] was at most 1.9 min p.i.

Molecule “^18F-PSMA-617-LysAMBF3-DOTA [F-18 labeled PSMA-617-Lys-AMBF3-DOTA]” has a Tumor/Blood baseline [5] of 14.19 ± 3.85, a Tumor/Kidney baseline [5] of 0.09 ± 0.03 and a Tumor/Muscle baseline [5] of 41.55 ± 10.83.

— patent US12427209B2, “Dual mode 18F-labelled theranostic compounds and uses thereof” (Provincial Health Services Authority, priority 2018, dated 2025)
